Experimental findings from ChEMBL document CHEMBL4837206, “Synthesis and biological evaluation of novel isoxazole-piperazine hybrids as potential anti-cancer agents with inhibitory effect on liver cancer stem cells” (Eur J Med Chem, 2021) are described below.

The subject of one assay is MCF7. The assay is described as follows: Antiproliferative activity against human MCF7 cells assessed as reduction in cell viability measured after 72 hrs by SRB assay. The format is functional, cell-based. To be noted: MCF7, 72 h. (In general: In SRB staining, fixed cells bind dye roughly in proportion to their protein.)
Assay [1] has as its system Huh-7. The assay is described as follows: Antiproliferative activity against human Huh-7 cells assessed as reduction in cell viability measured after 72 hrs by SRB assay. It counts as functional, cell-based. To be noted: Huh-7, 72 h.
For assay [2], the system named is Mahlavu. As to the kind of experiment: Antiproliferative activity against human Mahlavu cells assessed as reduction in cell viability measured after 72 hrs by SRB assay. It counts as functional, cell-based.
For assay [3], the system named is Huh-7. The assay is described as follows: Inhibition of cell stemness in human Huh-7 cells assessed as CD133+/EpCAM+ expression at 10 uM measured after 72 hrs by flow cytometry analysis (reference value: 29.92%). Also on record: scale not given: the % may be the effect or the level left. It counts as functional. Background: In flow cytometry, cells or beads pass a laser one at a time.

The subject of assay [4] is Huh-7. As to the kind of experiment: Inhibition of cell stemness in human Huh-7 cells assessed as reduction in size of tumor spheres at 10 uM incubated for 72 hrs followed by incubation in sphere formation medium for 7 days by microscopic analysis. The following applies: time 10.0 day. The format is functional, cell-based.
Assay [5] deals with Huh-7. The assay is described as follows: Inhibition of cell stemness in human Huh-7 cells assessed as reduction in tumor spheres count at 10 uM incubated for 72 hrs followed by incubation in sphere formation medium for 7 days by microscopic analysis. It counts as functional, cell-based. The following applies: time 10.0 day.
Assay [6] deals with Huh-7. As to the kind of experiment: Inhibition of cell stemness in human Huh-7 cells assessed as reduction in size of tumor spheres at 10 uM incubated for 72 hrs followed by incubation in sphere formation medium for 14 days by microscopic analysis. It counts as functional, cell-based. The following applies: time 17.0 day.
Assay [7] in a line: Upregulation of NANOG mRNA expression in human Mahlavu cells at 10 uM incubated for 72 hrs by RT-qPCR analysis relative to control. It counts as functional. In general terms: Quantitative PCR measures a nucleic acid by following its amplification.
Assay [8] concerns Huh-7. As to the kind of experiment: Upregulation of NANOG mRNA expression in human Huh-7 cells at 10 uM incubated for 72 hrs by RT-qPCR analysis. The format is functional, cell-based.
Assay [9] deals with Mahlavu. The assay is described as follows: Upregulation of OCT4 mRNA expression in human Mahlavu cells at 10 uM incubated for 72 hrs by RT-qPCR analysis. The format is functional, cell-based.
Assay [10] relates to Huh-7. The assay is described as follows: Upregulation of OCT4 mRNA expression in human Huh-7 cells at 10 uM incubated for 72 hrs by RT-qPCR analysis. It counts as functional, cell-based.
Assay [11] relates to Mahlavu. The assay is described as follows: Upregulation of OCT4 level in human Mahlavu cells at 10 uM measured after 72 hrs by flow cytometry analysis. It counts as functional, cell-based.

Active and inactive are the calls of the source. The calls are words filed in the database; no cut-off is given here.

Broadly, the IC50 is the point on the concentration scale where inhibition reaches its midpoint. Regarding `Cc1cccc(COc2ccc(-c3cc(CN4CCN(Cc5ccc(C(F)(F)F)cc5)CC4)no3)cc2)c1`, the IC50 came to 4000 nM in the assay with MCF7, 5000 nM in the assay on Huh-7 [1] and 2.5 µM with Mahlavu [2].
`CC(C)(C)OC(=O)N1CCN(Cc2cc(-c3ccc(OCc4cccc(C#N)c4)cc3)on2)CC1`: the IC50 in the assay on MCF7 was 3800 nM; with Huh-7 [1], 6100 nM; in the assay with Mahlavu [2], 5.6 µM.
In the case of `COc1cc(COc2ccc(-c3cc(CN4CCN(Cc5ccc(C(F)(F)F)cc5)CC4)no3)cc2)cc(OC)c1`, the results for the IC50 in the assay with MCF7, with Huh-7 [1] and in the assay on Mahlavu [2] were 100 nM, 1500 nM and 4.3 µM, respectively.
On to `Cc1cc(C)cc(COc2ccc(-c3cc(CN4CCN(Cc5ccc(C(F)(F)F)cc5)CC4)no3)cc2)c1`, for which the IC50 came out at 1600 nM with MCF7, 600 nM with Huh-7 [1] and 6 µM in the assay on Mahlavu [2].
In the same order, the values of `Fc1cccc(COc2ccc(-c3cc(CN4CCN(Cc5ccc(C(F)(F)F)cc5)CC4)no3)cc2)c1` are 2500 nM, 1300 nM and 2.9 µM.
The like results for `N#Cc1cccc(COc2ccc(-c3cc(CN4CCN(c5ccc(C(F)(F)F)cc5)CC4)no3)cc2)c1` were, in that order, 2000 nM, 2200 nM and 2.7 µM.
The like results for `Cc1ccccc1COc1ccc(-c2cc(CN3CCN(Cc4ccc(C(F)(F)F)cc4)CC3)no2)cc1` were, in that order, 3700 nM, 1200 nM and 6.8 µM.
Turning to `CNC(=O)c1cc(Oc2ccc(NC(=O)Nc3ccc(Cl)c(C(F)(F)F)c3)cc2)ccn1` [SORAFENIB], the Activity with Huh-7 [3] is on record as 36.16%. The inhibition result in the assay on Huh-7 [4] was “Active”. The inhibition entry in the assay with Huh-7 [5] and in the assay with Huh-7 [6] was “inactive” each time. Moreover, the “fold change (FC)” value in assay [7] is 10. The outcome with Huh-7 [8], with Mahlavu [9], in the assay with Huh-7 [10] and in the assay on Mahlavu [11] was Active.
Turning to `FC(F)(F)c1ccc(CN2CCN(Cc3cc(-c4ccc(OCc5ccccc5Cl)cc4)on3)CC2)cc1`, the IC50 came to 2800 nM in the assay on MCF7, 1000 nM in the assay on Huh-7 [1] and 3.2 µM in the assay with Mahlavu [2].
The like results for `N#Cc1cccc(COc2ccc(-c3cc(CN4CCN(Cc5cccc(F)c5)CC4)no3)cc2)c1` were, in that order, 2400 nM, 2700 nM and 2.6 µM.
The like results for `Fc1ccccc1COc1ccc(-c2cc(CN3CCN(Cc4ccc(C(F)(F)F)cc4)CC3)no2)cc1` were, in that order, 3000 nM, 1500 nM and 3.1 µM.
In the same order, the values of `Cc1cc(OCc2cccc(C#N)c2)ccc1-c1cc(CN2CCN(Cc3ccc(C(F)(F)F)cc3)CC2)no1` are 400 nM, 1500 nM and 0.5 µM.
For the compound `N#Cc1cccc(COc2ccc(-c3cc(CNC4CCN(Cc5ccccc5)CC4)no3)cc2F)c1`, the IC50 with MCF7 turned out to be 2700 nM; in the assay on Huh-7 [1], 2300 nM; in the assay with Mahlavu [2], 2.7 µM.
In the same order, the values of `COc1ccc(COc2ccc(-c3cc(CN4CCN(Cc5ccc(C(F)(F)F)cc5)CC4)no3)cc2)cc1` are 1300 nM, 3200 nM and 4.9 µM.
The like results for `CC(C)(C)OC(=O)N1CCC(NCc2cc(-c3ccc(OCc4cccc(C#N)c4)cc3)on2)CC1` were, in that order, 2800 nM, 1500 nM and 3 µM.
In the same order, the values of `N#Cc1cccc(COc2ccc(-c3cc(CN4CCN(Cc5ccc(C(F)(F)F)cc5)CC4)no3)cc2)c1` are 800 nM, 100 nM and 10.6 µM.
In the case of `N#Cc1cccc(COc2ccc(-c3cc(CN4CCN(Cc5ccc(C(F)(F)F)cc5)CC4)no3)c(F)c2)c1`, the IC50 in the assay with MCF7 worked out at 1200 nM; in the assay with Huh-7 [1] it was 400 nM; in the assay on Mahlavu [2], 0.4 µM.
The like results for `N#Cc1cccc(COc2ccc(-c3cc(CN4CCN(CC5CCCO5)CC4)no3)cc2)c1` (stereo not given) were, in that order, 8400 nM, 4200 nM and 4.8 µM.
The like results for `N#Cc1cccc(COc2ccc(-c3cc(CN4CCN(C(=O)C5CCCO5)CC4)no3)cc2)c1` (stereo not given) were, in that order, 3800 nM, 2200 nM and 4.1 µM.
In the same order, the values of `N#Cc1cccc(COc2ccc(-c3cc(CNC4CCN(Cc5ccccc5)CC4)no3)cc2)c1` are 2500 nM, 2500 nM and 2.1 µM.
Consider `Fc1ccc(COc2ccc(-c3cc(CN4CCN(Cc5ccc(C(F)(F)F)cc5)CC4)no3)cc2)cc1`, for which the figures for the IC50 in the assay with MCF7, in the assay on Huh-7 [1] and in the assay with Mahlavu [2] were 7900 nM, 2000 nM and 3.1 µM, respectively.
The like results for `COc1cc(COc2ccc(-c3cc(CN4CCN(Cc5ccc(C(F)(F)F)cc5)CC4)no3)cc2)cc(OC)c1OC` were, in that order, 1800 nM, 500 nM and 5.8 µM.
Regarding `N#Cc1cccc(COc2ccc(-c3cc(CN4CCN(Cc5ccc(F)cc5)CC4)no3)cc2)c1`, the IC50 in the assay with MCF7 worked out at 1800 nM; with Huh-7 [1] it was 1600 nM; in the assay on Mahlavu [2], 1.5 µM.
In the same order, the values of `N#Cc1cccc(COc2ccc(-c3cc(CN4CCN(C(=O)C5CC5)CC4)no3)cc2)c1` are 7600 nM, 2800 nM and 4.4 µM.
In the same order, the values of `COc1cccc(COc2ccc(-c3cc(CN4CCN(Cc5ccc(C(F)(F)F)cc5)CC4)no3)cc2)c1` are 2000 nM, 800 nM and 1.4 µM.
The like results for `N#Cc1ccc(COc2ccc(-c3cc(CN4CCN(Cc5ccc(C(F)(F)F)cc5)CC4)no3)cc2)cc1` were, in that order, 100 nM, 1000 nM and 4.3 µM.
As for `N#Cc1cccc(COc2ccc(-c3cc(CN4CCN(Cc5ccccc5F)CC4)no3)cc2)c1`, the IC50 in the assay on MCF7 stood at 1400 nM; in the assay on Huh-7 [1] it was 2400 nM; with Mahlavu [2], 2.3 µM.
With `COc1ccccc1COc1ccc(-c2cc(CN3CCN(Cc4ccc(C(F)(F)F)cc4)CC3)no2)cc1`, the IC50 in the assay with MCF7 came to 300 nM; in the assay on Huh-7 [1], 900 nM; in the assay with Mahlavu [2], 3.9 µM.
The like results for `N#Cc1cccc(COc2ccc(-c3cc(CN4CCN(C(=O)c5ccco5)CC4)no3)cc2F)c1` were, in that order, 1500 nM, 8100 nM and 3.6 µM.
In the same order, the values of `Cc1ccc(COc2ccc(-c3cc(CN4CCN(Cc5ccc(C(F)(F)F)cc5)CC4)no3)cc2)cc1` are 1200 nM, 1500 nM and 7.5 µM.
In the same order, the values of `FC(F)(F)c1ccc(CN2CCN(Cc3cc(-c4ccc(OCc5cccc(Cl)c5)cc4)on3)CC2)cc1` are 1400 nM, 200 nM and 4.1 µM.
In the case of `N#Cc1cccc(COc2ccc(-c3cc(CN4CCN(C(=O)c5ccco5)CC4)no3)cc2)c1`, the IC50 in the assay on MCF7 is 1900 nM; with Huh-7 [1], 2000 nM; in the assay with Mahlavu [2] it was 2.2 µM.
In the same order, the values of `N#Cc1ccccc1COc1ccc(-c2cc(CN3CCN(Cc4ccc(C(F)(F)F)cc4)CC3)no2)cc1` are 4000 nM, 5000 nM and 3.5 µM.
The like results for `Cc1cc(-c2cc(CN3CCN(Cc4ccc(C(F)(F)F)cc4)CC3)no2)ccc1OCc1cccc(C#N)c1` were, in that order, 700 nM, 600 nM and 0.45 µM.
In the same order, the values of `N#Cc1cccc(COc2ccc(-c3cc(CN4CCN(c5ccc(F)cc5)CC4)no3)cc2)c1` are 2400 nM, 1500 nM and 2.2 µM.
Regarding `N#Cc1cccc(COc2ccc(-c3cc(CN4CCN(c5ccc(C(F)(F)F)cn5)CC4)no3)cc2)c1`, the IC50 worked out at 1400 nM with MCF7, 1700 nM in the assay on Huh-7 [1] and 1.3 µM with Mahlavu [2].
Consider `N#Cc1cccc(COc2ccc(-c3cc(CN4CCN(CC5CC5)CC4)no3)cc2)c1`, for which the IC50 was 3500 nM with MCF7, 2900 nM in the assay with Huh-7 [1] and 3.2 µM with Mahlavu [2].
Regarding `FC(F)(F)c1ccc(CN2CCN(Cc3cc(-c4ccc(OCc5ccc(Cl)cc5)cc4)on3)CC2)cc1`, the values for the IC50 in the assay with MCF7, in the assay with Huh-7 [1] and in the assay with Mahlavu [2] were 6700 nM, 4000 nM and 3.7 µM, respectively.
